This assay deals with T1, full-length human Mineralocorticoid Receptor (MR) (Homo sapiens, UniProt P08235).
T1 construct: host or cells: PathHunter CHO-K1 cells
T1 sequence (P08235 1-984): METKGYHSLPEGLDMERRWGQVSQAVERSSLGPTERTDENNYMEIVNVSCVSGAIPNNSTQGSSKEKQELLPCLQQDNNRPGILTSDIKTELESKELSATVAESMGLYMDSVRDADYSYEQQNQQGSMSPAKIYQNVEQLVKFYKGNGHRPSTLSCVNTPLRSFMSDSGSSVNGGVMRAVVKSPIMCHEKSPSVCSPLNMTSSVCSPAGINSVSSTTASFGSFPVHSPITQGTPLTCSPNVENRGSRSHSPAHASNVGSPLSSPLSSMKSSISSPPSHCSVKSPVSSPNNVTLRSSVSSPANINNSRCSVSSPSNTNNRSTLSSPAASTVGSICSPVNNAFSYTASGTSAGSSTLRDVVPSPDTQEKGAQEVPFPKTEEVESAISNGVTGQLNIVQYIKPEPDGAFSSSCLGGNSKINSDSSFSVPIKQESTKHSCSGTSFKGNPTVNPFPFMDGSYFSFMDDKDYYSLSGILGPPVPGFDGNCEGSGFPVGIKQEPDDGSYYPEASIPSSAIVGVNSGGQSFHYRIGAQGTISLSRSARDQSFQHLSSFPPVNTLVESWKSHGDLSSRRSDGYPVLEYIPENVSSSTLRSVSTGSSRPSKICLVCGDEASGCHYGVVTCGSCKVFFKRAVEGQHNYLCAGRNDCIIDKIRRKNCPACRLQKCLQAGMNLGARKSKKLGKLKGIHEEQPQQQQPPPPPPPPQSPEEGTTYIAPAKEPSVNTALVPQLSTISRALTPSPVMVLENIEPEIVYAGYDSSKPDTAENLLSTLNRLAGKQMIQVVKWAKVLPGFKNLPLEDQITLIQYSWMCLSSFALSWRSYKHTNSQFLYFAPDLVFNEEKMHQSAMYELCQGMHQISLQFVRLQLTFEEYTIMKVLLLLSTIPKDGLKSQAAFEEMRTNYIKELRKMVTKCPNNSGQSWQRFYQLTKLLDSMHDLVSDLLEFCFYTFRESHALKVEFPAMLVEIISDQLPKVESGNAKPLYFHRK
In words: human MR NH Pro assay (PathHunter Protein:Protein interaction assay, MR antagonism). Format: cell-based. Conditions: PathHunter CHO-K1 cells overexpressing human MR; aldosterone 0.3 nM; 6 hours at 37° C.; luminescence; read-out: IC50 rating. As to the method:
The activity of the compounds of the present invention regarding mineralocorticoid receptor antagonism was evaluated using the following assay.
Assessment of Mr Potency in Hmr Nh Pro Assay
The human MR NH Pro assay is a commercially available PathHunter™ Protein: Protein interaction assay (DiscoveRx; http://www.discoverx.com/nhrs/prod-nhrs.php) that measures the ability of compounds to antagonize full-length human Mineralocorticoid Receptor (MR) binding to a coactivator peptide. PathHunter™ CHO-K1 cells that overexpress human MR (Cat #93-0456C2, Lot No: 09B0913) were cultured in growth media (F12K w/Glutamine and phenol red (Gibco 11765-047) supplemented with 10% HI FBS (Gibco 16000); 0.25 mg/ml Hygromycin in PBS (Invitrogen 10687-010, 50 mg/ml); 100 I.U./mL and 100 μg/mL Pen/Strep (Gibco 15140-122); 0.6 mg/mL Geneticin).
Compounds were assessed for MR antagonist activity by incubating the cells with a titrating dose of compound in F12K w/Glutamine and phenol red culture media (Invitrogen 11765-047) supplemented with 1% Charcoal/Dextran Treated FBS (Hyclone #SH30068.01) and aldosterone (0.3 nM) for 6 hours at 37° C.
• F12K w/Glutamine and phenol red (Gibco 11765-047) • 10% HI FBS (Gibco 16000) • 0.25 mg/ml Hygromycin in PBS (Invitrogen 10687-010, 50 mg/ml) • 100 I.U./mL and 100 μg/mL Pen/Strep (Gibco 15140-122) • 0.6 mg/mL Geneticin (Gibco 10131, 50 mg/ml) 2. Assay media: • F12K w/Glutamine and phenol red (Invitrogen 11765-047) • 1% Charcoal/Dextran Treated FBS (Hyclone #SH30068.01) 3. 3× PathHunter Detection Reagents (Cat#93-0001) (need ˜6 ml/plate). […] Control Agonist: Aldosterone: Sigma cat #A9477 • Prepare stock solution—10 μM in DMSO kept at −20 C • for assay, dilute in assay media to 1.8 or 6 nM (6× of final concentration=about 0.3 nM to about 1.0 nM) 5. Cell line: PathHunter CHO-K1 MR cells Cat #93-0456C2, Lot No: 09B0913, from operation liquid nitrogen stock. 6. Control Antagonist: Spironolactone: Sigma #S-3378 and Eplerenone Sigma #107724-20-9 (10 mM stock concentration also prepared in DMSO and stored at −20° C.). Methods: Assay Set up and Calculations: • 1. Cells were grown in F12+FBS+Hygromycin+pen/strep+Genetin. • 2. Cells were collected with 0.05% trypsin and the cell suspension was spun and resuspended in a volume of F12+1.5% CD-FBS and counted. • 3. The cells were resuspended to 4×10^5 cells/mL. • 4. Cells were (25 μL/well) added to the wells of a 384 well plate. • 5. The plate was then incubated at 37° C. over night in a humidified incubator with 5% CO2. • 6. Test compounds were titrated starting at 4.4 mM, 10-point titration in 1:3 dilution. • 7. Aldosterone was diluted in assay media to 1.8 nM or 6 nM from 10 μM stock (final concentration to be about 0.3 nM to about 1.0 nM). Protocol for 384 well plate format: 6 hr treatment: • 1. Plated 10K exponentially growing cells/well (25 μL) resuspended in assay media to each well using the Multidrop (Thermo Electron). Use white wall, clear bottom assay plates (Costar #3570) and incubate overnight at 37° C., 5% CO2. • 2. 0.25 μL 120× test compound (final DMSO concentration should be <1%) was added to each well n=2, 10 point titrations starting at 36.7 μM final concentration. • 3. 5 μL 6× agonist (final aldosterone concentration should be about 0.3 nM to about 1.0 nM) was added to all wells using the PlateMate Plus.
(ThermoFisher) (except those wells in columns 23 and 24) • 4. 5 μL of assay media was added to all wells in column 23 and 24. • 5. Plates were incubated 6 hrs at 37° C., 5% CO2. • 6. 15 μL 3× DiscoveRx detection reagent was added to each well. • 7. Plates were incubated for 1 hour at room temperature (plates stored in the dark). • 8. Plates were read on Envision (PerkinElmer) luminesence plate reader and analyzed using ADA. LC/MS method: (LC2M_Low/Med_Positive mode). LC Conditions: 5-98% CH3CN/H2O+v 0.1% TFA over 1.25 min; Flow Rate=1.5 mL/min, UV wavelength 254 nm; Column: Waters XTerra® MS C18 3.5 μm 2.1×20 mm IS™
On to `C[C@H](c1ccc(F)cc1)N1C(=O)O[C@](Cc2ccccc2)(C(=O)Nc2ccc(Cl)cc2)C1=O` [Compound 14, (5R)-5-Benzyl-N-(4-chlorophenyl)-3-[(1R)-1-(4-fluorophenyl)ethyl]-2,4-dioxo-1,3-oxazolidine-5-carboxamide], for which the IC50 is 100 to 500 nM.

For `C[C@H](c1ccc(F)cc1)N1C(=O)O[C@](Cc2ccccc2)(C(=O)Nc2ccc(F)cc2)C1=O` [Compound 15, (5R)-5-Benzyl-N-(4-fluorophenyl)-3-[(1R)-1-(4-fluorophenyl)ethyl]-2,4-dioxo-1,3-oxazolidine-5-carboxamide], the IC50 was 100 to 500 nM.

Take `C[C@H](C1CCCCC1)N1C(=O)O[C@](Cc2ccc(F)cc2)(C(=O)Nc2ccc(Cl)cc2)C1=O` [Compound 16, (5R)-N-(4-Chlorophenyl)-3-[(1R)-1-cyclohexylethyl]-5-(4-fluorobenzyl)-2,4-dioxo-1,3-oxazolidine-5-carboxamide]: the IC50 lay within 100 to 500 nM.

On to `C[C@H](C1CCCCC1)N1C(=O)O[C@](Cc2ccccc2)(C(=O)NCc2ccc(Cl)c(Cl)c2)C1=O` [Compound 17, (5R)-5-Benzyl-3-[(1R)-1-cyclohexylethyl]-N-(3,4-dichlorobenzyl)-2,4-dioxo-1,3-oxazolidine-5-carboxamide], for which the IC50 lay in the range of 100 to 500 nM.

For `C[C@H](c1ccc(F)cc1)N1C(=O)O[C@](Cc2ccccc2)(C(=O)NC(c2cccc(Cl)c2)C(F)(F)F)C1=O` (stereo partly drawn) [Compound 18, (5R)-5-Benzyl-N-[1-(3-chlorophenyl)-2,2,2-trifluoroethyl]-3-[(1R)-1-(4-fluorophenyl)ethyl]-2,4-dioxo-1,3-oxazolidine-5-carboxamide], the IC50 was 100 to 500 nM.

`C[C@H](c1ccc(F)cc1)N1C(=O)O[C@](Cc2ccccc2)(C(=O)Nc2ccccc2)C1=O` [Compound 19, (5R)-5-Benzyl-3-[(1R)-1-(4-fluorophenyl)ethyl]-2,4-dioxo-N-phenyl-1,3-oxazolidine-5-carboxamide]: the IC50 fell in the range of 100 to 500 nM.

In the case of `C[C@H](c1ccc(F)cc1)N1C(=O)O[C@](Cc2ccccc2)(C(=O)Nc2cccnc2)C1=O` [Compound 20], the IC50 lay within 100 to 500 nM.

As to `C[C@H](c1ccccc1)N1C(=O)O[C@](Cc2ccccc2)(C(=O)N2CCc3ccccc3C2)C1=O` [Compound 21, (5R)-Benzyl-5-(3,4-dihydroisoquinolin-2(1H)-ylcarbonyl)-3-[(1R)-1-phenylethyl]-1,3-oxazolidine-2,4-dione], the half-inhibitory concentration (IC50) lay within 100 to 500 nM.

Consider `C[C@H](c1ccccc1)N1C(=O)O[C@](Cc2ccccc2)(C(=O)N2Cc3ccccc3C2)C1=O` [Compound 22, (5R)-Benzyl-5-(1,3-dihydro-2H-isoindol-2-ylcarbonyl)-3-[(1R)-1-phenylethyl]-1,3-oxazolidine-2,4-dione], for which the IC50 lay in the range of 100 to 500 nM.

These data come from patent US9505730B2, “Mineralocorticoid receptor antagonists” (Merck Sharp & Dohme Corp., priority 2011, dated 2016).
